Where two headings read alike, the source gives them in different places.
Legend:
[1] = biological target: T1, His-p53 Y220C (94-294) protein (Homo sapiens, UniProt P04637, Y220C); experiment: In vitro DNA binding assay (HTRF); type: biochemical; conditions: % activation normalized to 2 μM Ref-1a high control
T1 construct: His-p53 Y220C (94-294) protein

NUGC4 (P53 WT) = experiment: Cell viability assay (CellTiter-Glo, 6 days), NUGC4; type: cell-based; conditions: cell viability, 6 days, CellTiter-Glo, read-out: NUGC4 (P53 WT) IC50
Protocol: (§1) Cells were collected and counted. A desired number of cells was seeded into 96-well microplate and cultured in 37° C. cell incubator overnight. Compounds dissolved in cell culture medium were added into cell plate and cultured for 6 days. After balancing CellTiter-Glo reagent and cells at room temperature for 30 min, equal volume of CellTiter-Glo reagents was added to assay plate and shaken for 2 min for cell lysis. The cells were balanced at room temperature for 10 minutes and Luminescence signal was read using Envision. The percent of cell viability for compounds treated wells were normalized between High control and low control. Wells containing cell culture medium and same percentage DMSO sewved as Low control. Wells containing cells and same percentage DMSO sewved as High control. Cell viability (%)=(Luminescence readoutCompound treated−Luminescence readoutLow control)/(Luminescence readoutHigh control−Luminescence readoutLow control)*100%. Then the data were analyzed either by fitting a 4-parameter logistic model or by Excel to calculate IC50 values. And the IC50 was the concentration at 50% Cell viability on the curve.

[2] = system: NUGC-3_P53_Luc single clonal cell line (p53 Y220C); experiment: Reporter gene assay (p53 RE luciferase); type: cell-based; conditions: luciferase reporter, 6 hours, normalized to Ref-1a (10 μM) high control, read-out: p53(Y220C)_NUGC-3 EC50
Protocol: NUGC-3_P53_Luc single clonal cell line was established using pGL4.38[luc2P/p53 RE/Hygro] Vector (E365A, promega). NUGC-3_P53-Luc single clonal cells were cultured in 37° C. cell incubator before use. NUGC-3-P53-Luc cells were collected and washed twice with PBS to remove phenol red and then resuspended in medium to a proper concentration. Tested compound dilutions were transferred into 384 well assay plates (PerkinElmer). A desired number of cells was seeded into the assay plate and cultured for 6 hours at 37° C. cell incubator. Britelite plus Luciferase Assay Reagent were added into each well and the luminescence value was recorded on Envision. The percent of activity value of compounds treated wells was normalized between high control and low control. Wells containing cells and Ref-1a (10 μM) sewved as high control, and wells containing cells and same percentage of DMSO sewved as low control. Activity value (%)=(Luminescence readoutCompound treated−Luminescence readoutLow control)/(Luminescence readoutHigh control−Luminescence readoutLow control)*100%. Then the data were analyzed either by fitting a 4-parameter logistic model or by Excel to calculate EC50 values and the EC50 was the concentration at 50% Activity on the curve.

NUGC3 (P53 Y220C) = experiment: Cell viability assay (CellTiter-Glo, 6 days), NUGC3; type: cell-based; conditions: cell viability, 6 days, CellTiter-Glo, read-out: NUGC3 (P53 Y220C) IC50
Protocol: as §1

SMILES | EC50 [1] [nM] | IC50 (NUGC4 (P53 WT); Homo sapiens, NUGC-4, 144 h) [nM] | EC50 ([2]; Homo sapiens, NUGC-3, 6 h) [nM] | IC50 (NUGC3 (P53 Y220C); Homo sapiens, NUGC-3, 144 h) [nM] | EC50 ([2]; Homo sapiens, NUGC-3) [nM] | IC50 (NUGC4 (P53 WT)) [nM] | EC50 [2] [nM] | IC50 (NUGC3 (P53 Y220C)) [nM]
COc1cc(P(C)(C)=O)ccc1NCC#Cc1sc2c(N[C@H]3CCN(C)C[C@@H]3C)cccc2c1CC(F)(F)F [Example 127, (4-((3-(7-(((3S,4S)-1,3-dimethylpiperidin-4-yl)amino)-3-(2,2,2-trifluoroethyl)benzo[b]thiophen-2-yl)prop-2-yn-1-yl)amino)-3-methoxyphenyl)dimethylphosphine oxide] | 38 | 2260 | 100 | 330 | – | – | – | –
COc1cc(P(C)(C)=O)ccc1NCC#Cc1sc2c(NC3CCN(CCCF)CC3)cccc2c1CC(F)(F)F [Example 205, (4-((3-(7-((1-(3-fluoropropyl)piperidin-4-yl)amino)-3-(2,2,2-trifluoroethyl)benzo[b]thiophen-2-yl)prop-2-yn-1-yl)amino)-3-methoxyphenyl)dimethylphosphine oxide] | 65 | 4100 | – | 1320 | 550 | – | – | –
CNC(=O)c1ccc(NCC#Cc2cc3c(N[C@@H]4CCN(C)C[C@@H]4F)cccc3n2CC(F)(F)F)c(OC)c1 [Example 57, 4-((3-(4-(((Z)-3-fluoro-1-methylpiperidin-4-yl)amino)-1-(2,2,2-trifluoroethyl)-1H-indol-2-yl)prop-2-yn-1-yl)amino)-3-methoxy-N-methylbenzamide] | 29 | 12000 | – | 1110 | 80 | – | – | –
CN1CCC(Nc2cccc3c(CC(F)(F)F)c(C#CCNc4ccc(P(C)(C)=O)cc4OC4CC4)sc23)[C@@H](F)C1 (stereo in doubt) [Example 106, (3-cyclopropoxy-4-((3-(7-(((Z)-3-fluoro-1-methylpiperidin-4-yl)amino)-3-(2,2,2-trifluoroethyl)benzo[b]thiophen-2-yl)prop-2-yn-1-yl)amino)phenyl)dimethylphosphine oxide] | – | 3800 | 90 | 780 | – | – | – | –
CN1CC[C@@H](Nc2cccc3c(CC(F)(F)F)c(C#CCNc4ccc(P(C)(C)=O)cc4C(=O)NC4COC4)sc23)[C@@H](F)C1 [Example 217, 5-(dimethylphosphoryl)-2-((3-(7-(((3S,4R)-3-fluoro-1-methylpiperidin-4-yl)amino)-3-(2,2,2-trifluoroethyl)benzo[b]thiophen-2-yl)prop-2-yn-1-yl)amino)-N-(oxetan-3-yl)benzamide] | – | 15400 | – | 320 | 150 | – | – | –
CN1CC[C@@H](Nc2cccc3c(CC(F)(F)F)c(C#CCNc4ccc(P(C)(C)=O)cc4-c4cc[nH]n4)sc23)[C@@H](F)C1 [Example 200, (4-((3-(7-(((3S,4R)-3-fluoro-1-methylpiperidin-4-yl)amino)-3-(2,2,2-trifluoroethyl)benzo[b]thiophen-2-yl)prop-2-yn-1-yl)amino)-3-(1H-pyrazol-3-yl)phenyl)dimethylphosphine oxide] | 25 | 13100 | 60 | – | – | – | – | –

Now from value to compound, other results behind:

EC50 [1] [nM] | SMILES | IC50 (NUGC4 (P53 WT); Homo sapiens, NUGC-4, 144 h) [nM] | EC50 ([2]; Homo sapiens, NUGC-3, 6 h) [nM] | IC50 (NUGC3 (P53 Y220C); Homo sapiens, NUGC-3, 144 h) [nM] | EC50 ([2]; Homo sapiens, NUGC-3) [nM] | IC50 (NUGC4 (P53 WT)) [nM] | EC50 [2] [nM] | IC50 (NUGC3 (P53 Y220C)) [nM]
50 | COc1cc(P(C)(C)=O)ccc1NCC#Cc1sc2c(N[C@@H]3CCN(C4CC5CCC(C4)O5)C[C@@H]3F)cccc2c1CC(F)(F)F (stereo partly drawn) [Example 180, (4-((3-(7-(((3S,4R)-1-(8-oxabicyclo[3.2.1]octan-3-yl)-3-fluoropiperidin-4-yl)amino)-3-(2,2,2-trifluoroethyl)benzo[b]thiophen-2-yl)prop-2-yn-1-yl)amino)-3-methoxyphenyl)dimethylphosphine oxide] | 5890 | – | 910 | 110 | – | – | –
44 | CN1CCC(Nc2cccc3c(CC(F)(F)F)c(C#CCNc4ccc(P(C)(C)=O)cc4OC(F)F)sc23)C(F)C1 (stereo not shown) [Example 64, (3-(difluoromethoxy)-4-((3-(7-(((Z)-3-fluoro-1-methylpiperidin-4-yl)amino)-3-(2,2,2-trifluoroethyl)benzo[b]thiophen-2-yl)prop-2-yn-1-yl)amino)phenyl)dimethylphosphine oxide] | – | – | – | – | 13600 | 150 | 980
73 | COCC(O)CNC(=O)c1ccc(NCC#Cc2sc3c(NC4CCN(C)CC4F)cccc3c2CC(F)(F)F)c(OC)c1 (stereo not shown) [Example 59, 4-((3-(7-(((Z)-3-fluoro-1-methylpiperidin-4-yl)amino)-3-(2,2,2-trifluoroethyl)benzo[b]thiophen-2-yl)prop-2-yn-1-yl)amino)-N-(2-hydroxy-3-methoxypropyl)-3-methoxybenzamide] | – | – | – | – | 9820 | 150 | 1440
73 | CP(C)(=O)c1ccc(NCC#Cc2sc3c(N[C@@H]4CCN(C5CCOCC5)C[C@@H]4F)cccc3c2CC(F)(F)F)c(OC2CC2)c1 [Example 161, (3-cyclopropoxy-4-((3-(7-(((3S,4R)-3-fluoro-1-(tetrahydro-2H-pyran-4-yl)piperidin-4-yl)amino)-3-(2,2,2-trifluoroethyl)benzo[b]thiophen-2-yl)prop-2-yn-1-yl)amino)phenyl)dimethylphosphine oxide] | 12900 | – | 1150 | 120 | – | – | –
60 | COc1cc(-c2ncn(C)n2)ccc1NCC#Cc1sc2c(N[C@@H]3CCN(C)C[C@@H]3F)cccc2c1CC(F)(F)F [Example 172, (3S,4R)-3-fluoro-N-(2-(3-((2-methoxy-4-(1-methyl-1H-1,2,4-triazol-3-yl)phenyl)amino)prop-1-yn-1-yl)-3-(2,2,2-trifluoroethyl)benzo[b]thiophen-7-yl)-1-methylpiperidin-4-amine] | 7550 | – | 1510 | 180 | – | – | –
33 | COc1c(NCC#Cc2sc3c(N[C@@H]4CCN(C)C[C@@H]4F)cccc3c2CC(F)(F)F)ccc(P(C)(C)=O)c1F [Example 194, (2-fluoro-4-((3-(7-(((3S,4R)-3-fluoro-1-methylpiperidin-4-yl)amino)-3-(2,2,2-trifluoroethyl)benzo[b]thiophen-2-yl)prop-2-yn-1-yl)amino)-3-methoxyphenyl)dimethylphosphine oxide] | 12200 | – | 1750 | 150 | – | – | –
66 | CN1CC[C@@H](Nc2cccc3c(CC(F)(F)F)c(C#CCNc4ccc(P(C)(C)=O)cc4S(C)(=O)=O)sc23)[C@@H](F)C1 [Example 175, (4-((3-(7-(((3S,4R)-3-fluoro-1-methylpiperidin-4-yl)amino)-3-(2,2,2-trifluoroethyl)benzo[b]thiophen-2-yl)prop-2-yn-1-yl)amino)-3-(methylsulfonyl)phenyl)dimethylphosphine oxide] | 35200 | – | 3550 | 640 | – | – | –
76 | COc1cc(P(C)(C)=O)ccc1NCC#Cc1sc2c(NC3CCN(C)CC3C(F)(F)F)cccc2c1CC(F)(F)F (racemic) [Example 170, (3-methoxy-4-((3-(7-(((E)-1-methyl-3-(trifluoromethyl)piperidin-4-yl)amino)-3-(2,2,2-trifluoroethyl)benzo[b]thiophen-2-yl)prop-2-yn-1-yl)amino)phenyl)di methylphosphine oxide (racemic)] | – | – | – | – | 3720 | – | 1640
70 | COc1cc(P(C)(C)=O)ccc1NCC#Cc1sc2c(NC3CCN(C)CC3C(F)(F)F)cccc2c1CC(F)(F)F (racemic) [Example 169, (3-methoxy-4-((3-(7-(((Z)-1-methyl-3-(trifluoromethyl)piperidin-4-yl)amino)-3-(2,2,2-trifluoroethyl)benzo[b]thiophen-2-yl)prop-2-yn-1-yl)amino)phenyl)dimethylphosphine oxide] | 4330 | – | 1630 | – | – | – | –
